Values of other authors as cited in US12064484B2, “Compositions for introducing RNA into cells” (ETHRIS GMBH, priority 2013, dated 2024).

Test system: cell culture
Conditions: cholesterol-polyamine carbamates

SMILES | reporter gene expression (beta galactosidase plasmid DNA)
CC(C)CCCC(C)C1CCC2C3CC=C4CC(OC(=O)NCCNCCCNCCN)CCC4(C)C3CCC12C (centres unmarked) [ethyl/propyl/ethyl] | three- to tenfold less efficient
CC(C)CCCC(C)C1CCC2C3CC=C4CC(OC(=O)NCCCNCCCCNCCCN)CCC4(C)C3CCC12C (centres unmarked) [propyl/butyl/propyl] | by far the highest reporter gene expression
